ChEMBL document CHEMBL5055685, “Discovery of the First Potent IDO1/IDO2 Dual Inhibitors: A Promising Strategy for Cancer Immunotherapy” (J Med Chem, 2021)
Each block holds one compound with its values, some of them ahead of it. Activity calls are given as the source filed them. No cut-off for these calls is given here.

Legend:
[1] = biological target: T1, Indoleamine 2,3-dioxygenase 1 (Homo sapiens, UniProt P14902); test: Inhibition of IDO1 (unknown origin) assessed as reduction in kynurenine formation using L-tryptophan as substrate by methylene blue reagent based assay
Target sequence in this assay (P14902 whole entry): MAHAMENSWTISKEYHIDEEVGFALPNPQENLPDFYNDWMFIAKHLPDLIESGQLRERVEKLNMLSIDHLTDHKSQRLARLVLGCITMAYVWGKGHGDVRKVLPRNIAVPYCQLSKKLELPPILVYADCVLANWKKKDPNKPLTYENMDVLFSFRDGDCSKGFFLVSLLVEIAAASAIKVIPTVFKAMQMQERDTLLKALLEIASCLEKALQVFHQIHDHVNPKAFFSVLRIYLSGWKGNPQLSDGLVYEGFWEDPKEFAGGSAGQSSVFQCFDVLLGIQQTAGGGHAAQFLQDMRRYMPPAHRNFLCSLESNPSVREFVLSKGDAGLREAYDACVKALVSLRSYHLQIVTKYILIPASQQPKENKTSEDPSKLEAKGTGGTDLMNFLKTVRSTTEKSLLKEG

[2] = biological target: T2, Indoleamine 2,3-dioxygenase 2 (Homo sapiens, UniProt Q6ZQW0); test: Inhibition of IDO2 (unknown origin) assessed as reduction in kynurenine formation using L-tryptophan as substrate by methylene blue reagent based assay
T2 sequence (Q6ZQW0 whole entry): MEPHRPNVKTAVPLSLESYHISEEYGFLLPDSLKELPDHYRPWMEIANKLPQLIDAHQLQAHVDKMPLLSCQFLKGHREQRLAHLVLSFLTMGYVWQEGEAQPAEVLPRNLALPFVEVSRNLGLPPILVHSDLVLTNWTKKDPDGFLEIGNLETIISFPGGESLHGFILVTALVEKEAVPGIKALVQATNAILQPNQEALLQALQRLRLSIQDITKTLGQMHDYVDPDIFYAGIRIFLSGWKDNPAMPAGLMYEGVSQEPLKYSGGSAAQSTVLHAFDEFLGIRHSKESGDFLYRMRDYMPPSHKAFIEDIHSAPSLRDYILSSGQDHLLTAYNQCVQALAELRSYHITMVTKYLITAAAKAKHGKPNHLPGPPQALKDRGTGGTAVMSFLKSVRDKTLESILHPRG

[3] = biological target: T1, Indoleamine 2,3-dioxygenase 1; test: Inhibition of IDO1 (unknown origin) assessed as reduction in kynurenine formation using L-tryptophan as substrate by methylene blue reagent based assay relative to control; parameters: concentration or dose not given beside the values; details: concentration not given here
Target sequence in this assay (P14902 whole entry, looked up): as the sequence (P14902 whole entry) above

[4] = biological target: T3, Indoleamine 2,3-dioxygenase 2 (Homo sapiens) (UniProt Q6ZQW0); test: Inhibition of IDO2 (unknown origin) assessed as reduction in kynurenine formation using L-tryptophan as substrate by methylene blue reagent based assay relative to control; parameters: concentration or dose not given beside the values; details: concentration not given here
T3 sequence (whole entry): T2 sequence (Q6ZQW0 whole entry)

[5] = tested on: Mus musculus; test: In vivo inhibition of IDO1/IDO2 in BALB/c mouse xenografted with human HCT-116 cells assessed as downregulation of Foxp3 mRNA expression in tumor by quantitative RT-PCR analysis; format: functional, organism-based
[6] = tested on: CT26; test: Antitumor activity against mouse CT26 cells implanted in BALB/c mouse assessed as tumor growth inhibition at 50 mg/kg, ip bid for 28 days by vernier caliper method relative to control; format: functional; details: CT26, 672 h, time 28 day, read-out: TGI
[7] = tested on: Mus musculus; test: In vivo inhibition of IDO2 in BALB/c mouse xenografted with human HCT-116 cells assessed as suppression of IDO2 expression in tumor by immunohistochemical assay; format: functional, organism-based
[8] = tested on: HCT-116; test: Cytotoxicity against human HCT-116 cells assessed as reduction in cell viability by CCK8 assay; format: functional, cell-based
[9] = tested on: Mus musculus; test: In vivo inhibition of TDO in BALB/c mouse xenografted with human HCT-116 cells assessed as suppression of TDO mRNA expression in tumor by quantitative RT-PCR analysis; format: functional, organism-based
[10] = tested on: CT26; test: Cytotoxicity against mouse CT26 cells assessed as reduction in cell viability by CCK8 assay; format: functional, cell-based
[11] = tested on: HT-29; test: Cytotoxicity against human HT-29 cells assessed as reduction in cell viability by CCK8 assay; format: functional, cell-based
[12] = tested on: Mus musculus; test: In vivo inhibition of TDO in BALB/c mouse xenografted with human HCT-116 cells assessed as suppression of TDO expression in tumor by immunohistochemical assay; format: functional, organism-based
[13] = tested on: Mus musculus; test: In vivo inhibition of IDO1/IDO2 in BALB/c mouse xenografted with human HCT-116 cells assessed as downregulation of Foxp3 expression in tumor by immunohistochemical assay; format: functional, organism-based
[14] = tested on: Mus musculus; test: In vivo inhibition of IDO2 in BALB/c mouse xenografted with human HCT-116 cells assessed as suppression of IDO2 mRNA expression in tumor by quantitative RT-PCR analysis; format: functional, organism-based
[15] = tested on: HCT-116; test: Antitumor activity against human HCT-116 cells xenografted in BALB/c nude mouse assessed as tumor growth inhibition at 300 mg/kg, ig bid for 21 days by vernier caliper method; format: functional, organism-based; details: time 21.0 day

Structure (SMILES): CC(C)(C)c1cn(CCNc2nonc2/C(=N/O)Nc2ccc(F)c(Br)c2)nn1
IC50 [1]: 132 nM
IC50 [2]: 1870 nM

Structure (SMILES): Nc1cccc(-c2cn(CCNc3nonc3/C(=N/O)Nc3ccc(F)c(Br)c3)nn2)c1
inhibition [3]: 7%
inhibition [4]: 12%

Structure (SMILES): NS(=O)(=O)NCCNc1nonc1/C(=N/O)Nc1ccc(F)c(Br)c1 [EPACADOSTAT]
inhibition [5]: inactive
inhibition in vivo at 50 mg/kg [6]: 49.4%
inhibition [7]: inactive
IC50 [8]: 37100 nM
inhibition [9]: inactive
IC50 [10]: 47100 nM
IC50 [11]: 63000 nM
inhibition [12]: inactive
inhibition [13]: inactive
inhibition [14]: inactive
Activity [15]: inactive

Structure (SMILES): CCCCc1cn(CCNc2nonc2/C(=N/O)Nc2ccc(F)c(Br)c2)nn1
IC50 [1]: 127 nM
IC50 [2]: 830 nM

Structure (SMILES): OCCc1cn(CCNc2nonc2/C(=N/O)Nc2ccc(F)c(Br)c2)nn1
IC50 [1]: 247 nM
IC50 [2]: 1170 nM

Next, values leading:

IC50 [1]: 98 nM
IC50 [2]: 958 nM
Structure (SMILES): OCCCc1cn(CCNc2nonc2/C(=N/O)Nc2ccc(F)c(Br)c2)nn1

IC50 [1]: 73 nM
IC50 [2]: 947 nM
Structure (SMILES): CCC(O)c1cn(CCNc2nonc2/C(=N/O)Nc2ccc(F)c(Br)c2)nn1 (stereo not drawn)
